Assay results taken from patent US20230134760A1, “CAR AND NRF2 DUAL ACTIVATOR AGENTS FOR CYCLOPHOSPHAMIDE-BASED AND DOXORUBICIN-BASED TREATMENTS OF CANCER” (priority 2020, published 2023).

Experiments:
hCAR or Nrf2 = experiment: all curve and EC50 curve of selected compounds (FIG. 22-35); format: cell-based; details: for Emax: figure legend values
Description: Cell lysates were assayed for luciferase activity and normalized against the activity of the Renilla luciferase using a Dual-Luciferase Kit (Promega). […] Compound 2, DL7076, was selected for further evaluation based on its effects in activating hCAR and Nrf2 using the HepG2 cell reporter assay (FIGS. 37a-37c).

BT549 cells = experiment: HPH/BT549 co-culture, CPA cytotoxicity (CCK8); format: cell-based; details: HPH/BT549 coculture, CPA 250, 500, 1000 μM, 48 hours
Description: HPH were cultured in collagen-coated 24 well plates and pre-treated with vehicle control (0.1% DMSO), CITCO (1 μM) or DL7076 (5 μM or 10 μM) for 24 h. […] Following the 24 h pre-treatment, coverslips were combined in hepatocyte seeded wells and exposed to designated concentrations of cyclophosphamide in the presence or absence of DL7076 for various time intervals, as indicated.
H9c2 cells were seeded 0.8×10^5 in 24-well plates. Following cell attachment, a 2 h pre-treatment with vehicle control (0.1% DMSO), SFN (2.5 μM) or DL7076 (1 μM, 5 μM, or 10 μM) was done followed by doxorubicin (2.5 μM) exposure for 22 h. Co-culture cells were assembled and treated with cyclophosphamide and doxorubicin as indicated. A Cell Counting Kit-8 (Enzo) assay was carried out. Cell viability was described as a percent of vehicle control (0.1% DMSO). Cardiomyocyte, human iPSC-derived cardiomyocytes, and BT549 viability was determined with a 1 hr incubation of 6% CCK8 in WEM.

cleaved caspase-3 = experiment: Cleaved caspase-3 Western blot in H9c2 cardiomyocytes; format: cell-based, rat; details: H9c2, DOX 2.5 μM
Text: Protein was harvested using cell lysis buffer (Cell Signaling Technology, Danvers, Mass.) with a complete protease inhibitor cocktail (Roche, Mannheim, Germany) prior to homogenizing via sonification. Homogenized protein from treated HPH, H9c2, BT549, and MDA-MB-231 cells were resolved on NuPage Novex Bis-Tris 4-12% gels (Life Technologies) or NuPage Novex Bis-Tris 12% gel and transferred through electrophoresis onto immobilon-P polyvinylidene difluoride (PVDF) membranes. Membranes were blocked with 5% BSA or 5% milk in Tris-Buffer saline with Tween 20 (TBST). Further, membranes were incubated with specific antibodies against human CYP2B6 (1:1000, Abcam), CYP3A4 (1:1000, Millipore Sigma), HO-1 (1:1000, Abcam), cleaved caspase-3 (1:1000 Cell Signaling Technologies), Nrf2 (1:1000, Abcam), TATA-Binding Protein (1:500, Santa Cruz) β-actin (1:3000, Millipore Sigma) at 4° C. overnight. Following overnight incubation, horseradish peroxidase goat anti-mouse or anti-rabbit IgG antibodies were used for secondary incubation. Membranes were developed using SuperSignal West Pico Chemiluminescent Substrate (Thermo Scientific) or Radiance Q (Azure). Two TNBC cell lines, cardiomyocytes, and HPH protein samples were isolated and resolved on a 4-12% or 12% SDS PAGE gel followed by electrophoretic transfer to a PVDF membrane. Membranes were probed 1:1000 for CYP2B6, CYP3A4, Nrf2, cleaved caspase 3, and HO-1 using β-actin (1:3000) or TBP (1:500) as a loading control.

H9c2 cells = experiment: Oxidative stress imaging (DFDA) in H9c2 cells; format: cell-based, rat; details: H9c2, DOX 1, 2.5, 5 μM, 6 hours
Description: H9c2 rat cardiomyocytes seeded at 0.8×10^5 in 24-well plates. […] Cells were washed 3× with PBS. Subsequently, 0.5 mL of WEM containing 20 μM 2'-7'-dichlorofluorescein diacetate (DFDA) was added to each well. The cells were incubated at 37° C. and 5% CO2 for 30 min. The oxidation of DFDA to the fluorescent dichlorofluorescein was viewed using fluorescence microscopy (Nikon Eclipse Ti) with a FITC filter at […] and quantified using Brightspot detection for fluorescent detection of triplicate images and normalized to the vehicle control (0.1% DMSO). Cells on coverslips from co-culture experiments were fixed using 4% paraformaldehyde and permealized using Triton-X 100. A primary antibody for mouse anti-phospho-H2AX ([…]) was incubated overnight. Goat anti-mouse IgG Fluor Alexa 488 (1:200) was incubated for 2 hrs. Phosphorylation was calculated through fluorescence intensity all normalized to the vehicle control.

Structure (SMILES) | EC50 (hCAR or Nrf2) | Emax (hCAR or Nrf2) | BT549 viability, CPA alone (BT549 cells) | cleaved caspase-3 expression, DOX alone (cleaved caspase-3) | ROS (fluorescence intensity), DOX alone (H9c2 cells)
O=C(N[C@@H]1CCCC[C@H]1N=C=S)c1c(-c2ccc3ccccc3c2)nc2occn12 (stereo in doubt) [DL7096, N-((1R,2R)-2-Isothiocyanatocyclohexyl)-6-(naphthalen-2-yl)imidazo[2,1-b]oxazole-5-carboxamide] | 0.33 µM | 1.1 | – | – | –
O=P1(N(CCCl)CCCl)NCCCO1 (stereo not shown) [CPA, cyclophosphamide] | – | – | decreased the viability of the BT549 cells in a concentration-dependent manner | – | –
O=C(NCCN=C=S)c1c(-c2ccc3ccccc3c2)nc2occn12 [DL7009, N-(2-Isothiocyanatoethyl)-6-(naphthalen-2-yl)imidazo[2,1-b]oxazole-5-carboxamide] | 0.93 µM | 1.4 | – | – | –
O=C(NCC(N=C=S)c1ccccc1)c1c(-c2ccc3ccccc3c2)nc2occn12 (stereo not drawn) [DL7055-2, N-(2-Isothiocyanato-2-phenylethyl)-6-(naphthalen-2-yl)imidazo[2,1-b]oxazole-5-carboxamide] | 19 ± 0.08 µM | 6.2 | – | – | –
O=C(c1c(-c2ccc3ccccc3c2)nc2occn12)N1CCC(N=C=S)CC1 [DL7077, (4-Isothiocyanatopiperidin-1-yl)(6-(naphthalen-2-yl)imidazo[2,1-b]oxazol-5-yl)methanone] | 4.8 ± 0.21 µM | 1.8 | – | – | –
O=C(NCCCN=C=S)c1c(-c2ccc3ccccc3c2)nc2occn12 [DL7087, N-(3-Isothiocyanatopropyl)-6-(naphthalen-2-yl)imidazo[2,1-b]oxazole-5-carboxamide] | 1.1 ± 0.43 µM | 1.27 | – | – | –
CC(CN=C=S)NC(=O)c1c(-c2ccc3ccccc3c2)nc2occn12 (stereo not drawn) [DL7091, N-(1-Isothiocyanatopropan-2-yl)-6-(naphthalen-2-yl)imidazo[2,1-b]oxazole-5-carboxamide] | 4.1 µM | 3.6 | – | – | –
CC(CNC(=O)c1c(-c2ccc3ccccc3c2)nc2occn12)N=C=S (stereo not drawn) [DL7092, N-(2-Isothiocyanatopropyl)-6-(naphthalen-2-yl)imidazo[2,1-b]oxazole-5-carboxamide] | 32 µM | 6.0 | – | – | –
O=C(NCCCCN=C=S)c1c(-c2ccc3ccccc3c2)nc2occn12 [DL7101, N-(4-Isothiocyanatobutyl)-6-(naphthalen-2-yl)imidazo[2,1-b]oxazole-5-carboxamide] | 0.42 µM | 1.6 | – | – | –
COc1cccc2c1C(=O)c1c(O)c3c(c(O)c1C2=O)C[C@@](O)(C(=O)CO)C[C@@H]3O[C@H]1C[C@H](N)[C@H](O)[C@H](C)O1 [DOX, doxorubicin] | – | – | – | abundance in the expression of cleaved caspase-3 | concentration dependently increases ROS
